Laboratory results taken from paper PMC11337205, “Unraveling Interspecies Differences in the Phase I Hepatic Metabolism of Alternariol and Alternariol Monomethyl Ether: Closing Data Gaps for a Comprehensive Risk Assessment” (Chemical Research in Toxicology, 2024).

Key:
[1] = Phase I metabolism kinetics (parent toxin loss) in NADPH-fortified porcine liver microsomes, LC-MS/MS; type: in vitro ADME, pig; conditions: for microsomal CLint: Large White, pH 7.4, porcine LMs, read-out: CLint (intrinsic clearance)
Procedure: (§1) Pooled human LMs and pooled Sprague–Dawley rat hepatic microsomes, both originating from male donors, were purchased from Sigma-Aldrich (St. Louis, MO, USA) and Gibco, Thermo Fisher Scientific (Waltham, MA, USA), respectively. Porcine LMs were prepared according to an in-house-developed protocol based on the publication of Knights et al.[32] The liver of an approximately four-month-old female “Large White” (or “German Edelschwein”) pig was obtained from a local slaughterhouse. After slaughtering, the liver was placed on ice for about an hour, kept in ice-cold 50 mM tris(hydroxymethyl)aminomethane hydrochloride (Tris–HCl) (pH 7.4) for an additional hour while being transported, and processed immediately.
(§2) The kinetics of the phase I metabolism of AOH and AME was investigated by incubating human, rat (both 1 mg protein/mL), and porcine LMs (2 mg protein/mL) with 1, 10, 20, 50, and 100 μM AOH or 1, 10, 20, and 50 μM AME based on the protocol by Al-Subeihi et al.[34] The incubation solution contained a final concentration of 3 mM NADPH and 1 mM ascorbic acid in 200 mM Tris–HCl (pH 7.4). After preincubation (37 °C, 1 min, mixing at 250–300 rpm), the toxin stock was added in a 1:100 dilution, resulting in a total DMSO content of 1% and the desired toxin concentration. DMSO was selected for this assay because it is the least inhibitory of the solvents studied by Busby et al. on CYP1A1,[35] the primary enzyme involved in the hydroxylation of AOH and AME.[26] The well-established solubility of the test compounds in DMSO and DMSO-containing aqueous buffers facilitated laboratory work and ensured consistency with existing literature, thereby improving the comparability of results across studies, including those of Pfeiffer and colleagues.[25] In a preliminary investigation, incubation times of 5 and 10 min were chosen because they fall within the linear range of the transformation rate–time relationship, thereby ensuring initial rate conditions (Figure S1). When the selected incubation time (0–10 min) passed, one part of the sample was pipetted into two parts of ice-cold extraction solvent (acetonitrile–methanol, 1:1, v/v) for reaction termination. Subsequently, the samples were placed into the freezer (−20 °C) for at least an hour, centrifuged (15 min, 18,000g, 4 °C), and further diluted in methanol–water (3:7, v/v) prior to LC–MS measurements. In the solvent control, the toxin was substituted with DMSO in the incubation solution. Control incubations were performed without the cofactor NADPH or with heat-inactivated microsomes (98 °C, 10 min, mixing at 300 rpm).
(§3) The quantification of selected analytes using external calibration (MS parameters listed in Supporting Information Table S1) was conducted on a high-performance liquid chromatographic system (Dionex UltiMate 3000 UHPLC, Dionex Softron GmbH, Germering, Germany) coupled to a triple quadrupole mass spectrometer (TSQ Vantage, Thermo Fisher Scientific, Waltham, MA, USA), equipped with a heated electrospray ionization (ESI) interface. The applied analytical method is based on Puntscher et al.[28],[36] with slight modifications, which are specified below.
(§4) In brief, the Ascentis Express C18 column (10 cm × 2.1 mm, 2.7 μm, Supelco, Munich, DE), equipped with the Phenomenex SecurityGuard (C18 Cartridges, 4 × 2.0 mm ID, Phenomenex Ltd. Deutschland, Aschaffenburg, Germany), served as the stationary phase. Eluent A was aqueous ammonium acetate (5 mM, pH adjusted to 8.6 with a 25% ammonia solution), and eluent B was methanol. During the first minute, the column was kept at 30% eluent B. Subsequently, the eluent B content was linearly raised to 100% within 6 min. Thereafter, the column was washed with 100% eluent B for 1.5 min. Lastly, the column was re-equilibrated at the initial conditions, reaching an overall run time of 10 min. The autosampler compartment was kept at 10 °C, while the column oven temperature was maintained at 30 °C. […]

[2] = Phase I metabolism kinetics (parent toxin loss) in NADPH-fortified rat liver microsomes, LC-MS/MS; type: in vitro ADME, Sprague–Dawley rat; conditions: for microsomal CLint: Sprague-Dawley, rat, pH 7.4, rat LMs, read-out: CLint (intrinsic clearance)
Procedure: as §1, §2, §3, §4

[3] = Pattern of oxidative metabolites in porcine LMs by HR-MS; type: in vitro ADME, pig; conditions: porcine LMs incubated with AME
Procedure: as §2
Pooled high-resolution MS (HR-MS) samples were analyzed on a Vanquish UHPLC system (Thermo Fisher Scientific, Waltham, MA, USA) connected to a dual-pressure linear trap-quadrupole Orbitrap mass analyzer (Velos ETD, Thermo Fisher Scientific, Waltham, MA, USA). The heated ESI interface (source heater temperature: 400 °C) was operated in both positive and negative modes. The mobile and stationary phases were the same as those for the targeted analysis. The column compartment temperature was kept at 40 °C. A multistep gradient was applied at a flow rate of 0.4 mL/min and started with rinsing the column for 1 min at 10% eluent B. Then, the organic content was linearly raised to 100% until the 11th minute. Subsequently, the column was purged with 100% eluent B for two additional minutes. Finally, the initial eluent composition was reset between minutes 13 and 13.5, followed by a 2 min re-equilibration under these conditions, resulting in a total run time of 15.5 min. Data acquisition and evaluation were performed with the software Skyline (v. 21.1.0.146, MacCoss Lab, Department of Genome Sciences, University of Washington, Seattle, WA, USA), XCalibur (v. 2.2SP1.48), and Chromeleon (v. 7.2.6.; both Thermo Fisher Scientific, Waltham, MA, USA).
As no analytical standards are currently available for the hydroxy (OH) metabolites of AOH and AME, an Alternaria reference mixture containing 4-OH-AOH and 4-OH-AME was used to enable associating peaks with their respective phase I metabolites.

[4] = Pattern of oxidative metabolites in human LMs by HR-MS; type: in vitro ADME; conditions: human LMs incubated with AME
Procedure: as §2
Pooled high-resolution MS (HR-MS) samples were analyzed on a Vanquish UHPLC system (Thermo Fisher Scientific, Waltham, MA, USA) connected to a dual-pressure linear trap-quadrupole Orbitrap mass analyzer (Velos ETD, Thermo Fisher Scientific, Waltham, MA, USA). The heated ESI interface (source heater temperature: 400 °C) was operated in both positive and negative modes. The mobile and stationary phases were the same as those for the targeted analysis. The column compartment temperature was kept at 40 °C. A multistep gradient was applied at a flow rate of 0.4 mL/min and started with rinsing the column for 1 min at 10% eluent B. Then, the organic content was linearly raised to 100% until the 11th minute. Subsequently, the column was purged with 100% eluent B for two additional minutes. […]

Cc1cc(O)cc2oc(=O)c3c(O)cc(O)cc3c12 [AOH, alternariol]
Km ([1]; female, Large White (German Edelschwein), pig, liver microsomes, pH 7.4, porcine LMs 2 mg protein/mL, NADPH, within 10 min, Michaelis–Menten model, read-out: Km (Michaelis constant)): 672 µM | microsomal CLint ([1]; female, pig, liver microsomes, Michaelis–Menten model, ratio Vmax/Km): 8.52 µL/min/mg | microsomal CLint ([1]; female, pig, liver microsomes, linear regression, lower concentration range): 6.56 µL/min/mg | Concentration decrease ([1]; porcine LMs, 1 µM toxin, 5 min): 20% | Concentration decrease ([1]; porcine LMs, 1 µM toxin, 10 min): 47% | Concentration decrease ([1]; porcine LMs, 10 µM toxin, 5 min): 6% | Concentration decrease ([1]; porcine LMs, 10 µM toxin, 10 min): 16% | Concentration decrease ([1]; porcine LMs, 20 µM toxin, 5 min): 2% | Concentration decrease ([1]; porcine LMs, 20 µM toxin, 10 min): 15% | Concentration decrease ([1]; porcine LMs, 50 µM toxin, 5 min): 11% | Concentration decrease ([1]; porcine LMs, 50 µM toxin, 10 min): 14% | Concentration decrease ([1]; porcine LMs, 100 µM toxin, 5 min): 12% | Concentration decrease ([1]; porcine LMs, 100 µM toxin, 10 min): 14% | Vmax (maximum transformation rate) ([1]; porcine LMs, within 10 min, Michaelis–Menten model): 5730 pmol/mg/min | microsomal CLint ([2]; male, liver microsomes, Michaelis–Menten model, ratio Vmax/Km): 35.9 µL/min/mg | microsomal CLint ([2]; male, liver microsomes, linear regression, lower concentration range): 29.9 µL/min/mg | Km ([2]; male, Sprague–Dawley, liver microsomes, pH 7.4, rat LMs 1 mg protein/mL, NADPH, within 10 min, Michaelis–Menten model, read-out: Km (Michaelis constant)): 78.7 µM | Concentration decrease ([2]; rat LMs, 1 µM toxin, 5 min): 11% | Concentration decrease ([2]; rat LMs, 1 µM toxin, 10 min): 19% | Concentration decrease ([2]; rat LMs, 10 µM toxin, 5 min): 13% | Concentration decrease ([2]; rat LMs, 10 µM toxin, 10 min): 27% | Concentration decrease ([2]; rat LMs, 20 µM toxin, 5 min): 14% | Concentration decrease ([2]; rat LMs, 20 µM toxin, 10 min): 28% | Concentration decrease ([2]; rat LMs, 50 µM toxin, 5 min): 6% | Concentration decrease ([2]; rat LMs, 50 µM toxin, 10 min): 9% | Concentration decrease ([2]; rat LMs, 100 µM toxin, 5 min): 5% | Concentration decrease ([2]; rat LMs, 100 µM toxin, 10 min): 12% | Vmax (maximum transformation rate) ([2]; rat LMs, within 10 min, Michaelis–Menten model): 2830 pmol/mg/min | relative abundance among phase I metabolites (in words) [3]: one of the main metabolites | relative abundance among phase I metabolites (in words) [4]: small amounts
